Patent US11680060B2, “Bicycloheptane pyrrolidine orexin receptor agonists” (Merck Sharp & Dohme LLC, priority 2020, dated 2023)

Target: human OX2R (Homo sapiens (Human), UniProt O43614)
Assay: IPOne (IP-1) assay in CHO cells expressing human OX2R
Format: cell-based
Conditions: for Emax: CHO, read-out: Emax (%); for Emax / Emax (%): percentage of mean max effect of a reference compound at 1 uM (100% activity by comparison to Orexin A), human OX2R; for IC50: CHO cells expressing human OX2R, IP-One detection, 2 hours incubation, EC50 = inflection point of four parameter logistic fit, read-out: hOX2R_IP_IC50
From the text: The utility of the compounds in accordance with the present invention as orexin receptor OX1R and/or OX2R agonists may be readily determined without undue experimentation by methodology well known in the art. Both the OX1R and/or OX2R G-coupled protein receptors (GPCRs) couple through the Gαq signaling pathway, which ultimately promotes calcium mobilization via inositol triphosphate (IP3) production. The half-life of IP-3 is relatively short, being rapidly metabolized to inositol monophosphate (IP-1), which can be readily detected using a commercially available assay kit (IP-One; Cisbio; cat #621PAPEC) coupled with a cell line expressing the target receptor(s) of interest. The utility of the compounds in accordance with the present invention as orexin receptor OX1R and/or OX2R agonists may be determined utilizing this assay.
In a typical experiment, the OX1 and OX2 receptor agonist activity is determined in accordance with the following general experimental method. Chinese hamster ovary (CHO) cells expressing human OX1R and/or the human OX2R were grown in Iscove's modified DMEM containing glutaMAX™, 1% G418, 100 U/mL penicillin, 100 μg/mL streptomycin and 10% heat-inactivated qualified fetal bovine serum (FBS). The OX2R cells were seeded at 10,000 cells/well/50 μL and the OX1R cells were seeded at 20,000 cells/well/50 μL into 384-well white tissue culture plates (Greiner; cat #781080). All cell/media reagents were from GIBCO-Invitrogen Corp. The seeded cell plate(s) were incubated at 37° C. with 5% CO2 and 85% humidity for 20-24 hours. On the day of the assay, assay-ready compound plates were prepared using an acoustic liquid handler (ECHO; Labcyte), which dispensed sufficient volume of test compound stock (10 mM in DMSO) or 100% DMSO to prepare 10 point, ½-log dilutions in a final volume of 202.5 nL/well in all test wells of a 384-well diamond plate (Labcyte). Following completion of assay-ready plates, importantly, the next three steps were performed with minimal delay: 1) 20 μl of 1× stimulation buffer was added to the compound plate using a Multidrop Combi (small cassette, Thermo Fisher Scientific cat #24073290); 2) culture medium was removed from the cell plate using the Bluewasher plate washer (gentle spin; BlueCatBio); 3) 14 μl of compound/stimulation buffer mixture was added to the cell plate using a Bravo liquid handler (Agilent) prior to incubating cell plates at 37° C. with 5% CO2 and 85% humidity for 1 or 2 hours (OX1R and OX2R, respectively). During this incubation, IP-one detection reagents were prepared (38:1:1 lysis buffer:D2:AB-cryptate reagents). Six μL of mixed detection reagents were added to the cell plate using a Multidrop Combi (small cassette, Thermo Fisher Scientific cat #24073290) and incubated 60 minutes at room temperature in the dark. Fluorescence signal was detected using an Envision plate reader (Perkin Elmer) [LANCE/DELFIA Dual Enh (Em: APC 665; Ex: Cy5 620)].
For each compound, data were fit to a four parameter logistic fit (ActivityBase software) and the EC50 was reported as the inflection point of the resulting curve. Percent effect for each test compound was determined as the percentage of sample raw value/mean max effect, where the mean max effect was derived from the mean raw value of 32 control wells per assay plate (using Orexin A (cat #003-30) at 1 μM for human OX1R and a reference compound at 1 uM with 100% activity previously established by comparison to Orexin A for human OX2R). The intrinsic orexin receptor agonist activity of a compound which may be used in the present invention may be determined by these assays.

human OX2R, sequence (O43614 whole entry): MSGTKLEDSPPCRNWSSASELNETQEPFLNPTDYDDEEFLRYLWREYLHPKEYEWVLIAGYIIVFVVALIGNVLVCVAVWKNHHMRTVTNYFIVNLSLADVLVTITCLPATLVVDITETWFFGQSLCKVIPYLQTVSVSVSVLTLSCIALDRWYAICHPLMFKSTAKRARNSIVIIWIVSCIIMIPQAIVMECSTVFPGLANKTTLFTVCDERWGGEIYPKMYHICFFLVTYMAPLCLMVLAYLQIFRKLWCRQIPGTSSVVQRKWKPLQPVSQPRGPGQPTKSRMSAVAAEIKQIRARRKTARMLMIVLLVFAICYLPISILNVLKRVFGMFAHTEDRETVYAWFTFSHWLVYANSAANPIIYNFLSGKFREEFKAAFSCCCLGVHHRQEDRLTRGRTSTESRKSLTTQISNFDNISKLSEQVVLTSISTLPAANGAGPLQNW

Row | Structure (SMILES) | Emax [%] | IC50 [nM] | Emax (%)
1 | COC(=O)N1[C@@H]2COC[C@@H]2C(NS(C)(=O)=O)[C@@H]1COC1CCC2(c3ncc(F)cn3)CC2C1 (mixture of isomers) [Example 134, Methyl (2R,3aS,6aS)-2-(((6-(5-fluoropyrimidin-2-yl)bicyclo[4.1.0]heptan-3-yl)oxy)methyl)-3-(methylsulfonamido)hexahydro-1H-furo[3,4-b]pyrrole-1-carboxylate] | 99.7 | – | –
2 | COC(=O)N1[C@H](C)C[C@H](NS(=O)(=O)N(C)C)[C@@H]1COC1CCC2(c3cccc(F)c3)CC2C1 (mixture of isomers) [Example 3, methyl (2R,3S,5R)-3-((N,N-dimethylsulfamoyl)amino)-2-(((6-(3-fluorophenyl)bicyclo[4.1.0]heptan-3-yl)oxy)methyl)-5-methylpyrrolidine-1-carboxylate] | 99.9 | – | –
3 | CC(C)OC(=O)N1[C@H](C)C[C@H](NS(C)(=O)=O)[C@@H]1COC1CCC2(c3ncc(F)cn3)CC2C1 (mixture of isomers) [Example 26, isopropyl (2R,3S,5R)-2-(((6-(5-fluoropyrimidin-2-yl)bicyclo[4.1.0]heptan-3-yl)oxy)methyl)-5-methyl-3-(methylsulfonamido)pyrrolidine-1-carboxylate] | 101 | 11.4 | –
4 | COC(=O)N1[C@H](C)C[C@H](NS(=O)(=O)C(F)F)[C@@H]1COC1CCC2(c3ncccn3)CC2C1 (mixture of isomers) [Example 67, methyl (2R,3S,5R)-3-((difluoromethyl)sulfonamido)-5-methyl-2-(((6-(pyrimidin-2-yl)bicyclo[4.1.0]heptan-3-yl)oxy)methyl)pyrrolidine-1-carboxylate] | 101 | 3.4 | –
5 | COC(=O)N1[C@H](C)C[C@H](NS(C)(=O)=O)[C@@H]1COC1CCC2(c3ncc(C#N)cn3)CC2C1 (mixture of isomers) [Example 188, methyl (2R,3S,5R)-2-(((6-(5-cyanopyrimidin-2-yl)bicyclo[4.1.0]heptan-3-yl)oxy)methyl)-5-methyl-3-(methylsulfonamido)pyrrolidine-1-carboxylate] | 96.9 | 195 | –
6 | COC(=O)N1[C@H](C)C[C@H](NS(C)(=O)=O)[C@@H]1COC1CCC2(c3ccccc3)CC2C1 (single isomer, unassigned) [Example 1] | 99.6 | 20.6 | –
7 | COC(=O)N1[C@H](C)C[C@H](NS(C)(=O)=O)[C@@H]1COC1CCC2(c3ccccc3)CC2C1 (single isomer, unassigned) [Example 2] | – | 176 | 100.5
8 | COC(=O)N1[C@H](C)C[C@H](NS(=O)(=O)N(C)C)[C@@H]1COC1CCC2(c3cnccn3)CC2C1 (single isomer, unassigned) [Example 11] | 96.1 | – | –
9 | COC(=O)N1[C@H](C)C[C@H](NS(=O)(=O)N(C)C)[C@@H]1COC1CCC2(c3cnccn3)CC2C1 (single isomer, unassigned) [Example 14] | – | – | 93.5
10 | COC(=O)N1[C@H](C)C[C@H](NS(C)(=O)=O)[C@@H]1COC1CCC2(c3ncccn3)CC2C1 (single isomer, unassigned) [Example 16] | – | 16.4 | 102.2
11 | COC(=O)N1[C@H](C)C[C@H](NS(C)(=O)=O)[C@@H]1COC1CCC2(c3ncccn3)CC2C1 (single isomer, unassigned) [Example 17] | – | 2260 | 89.7
12 | COC(=O)N1[C@H](C)C[C@H](NS(C)(=O)=O)[C@@H]1CO[C@H]1CC[C@@]2(c3ncccn3)C[C@H]2C1 (single isomer, unassigned) [Example 19] | – | – | 100.9
13 | COC(=O)N1[C@H](C)C[C@H](NS(C)(=O)=O)[C@@H]1CO[C@@H]1CC[C@]2(c3ncccn3)C[C@@H]2C1 (single isomer, unassigned) [Example 20] | – | – | 99.7
14 | COC(=O)N1CC[C@H](NS(C)(=O)=O)[C@@H]1CO[C@H]1CC[C@@]2(c3ncccn3)C[C@H]2C1 (single isomer, unassigned) [Example 24] | – | 238 | 99.8
15 | COC(=O)N1CC[C@H](NS(C)(=O)=O)[C@@H]1CO[C@@H]1CC[C@]2(c3ncccn3)C[C@@H]2C1 (single isomer, unassigned) [Example 25] | – | – | 94.7
16 | CC(C)OC(=O)N1[C@H](C)C[C@H](NS(=O)(=O)C(F)F)[C@@H]1CO[C@H]1CC[C@@]2(c3ncc(Cl)cn3)C[C@H]2C1 (single isomer, unassigned) [Example 81] | 100 | 4.5 | –
17 | COC(=O)N1[C@H](C)C[C@H](NS(=O)(=O)CF)[C@@H]1CO[C@H]1CC[C@@]2(c3ncc(Cl)c(OC)n3)C[C@H]2C1 (single isomer, unassigned) [Example 84] | 101 | 4.6 | –
18 | COC(=O)N1[C@H](C)C[C@H](NS(=O)(=O)CF)[C@@H]1CO[C@H]1CC[C@@]2(c3ncc(Br)cn3)C[C@H]2C1 (single isomer, unassigned) [Example 87] | 102 | 2 | –
19 | CC(C)OC(=O)N1[C@H](C)C[C@H](NS(=O)(=O)C(F)F)[C@@H]1CO[C@H]1CC[C@@]2(c3ncc(F)cn3)C[C@H]2C1 (single isomer, unassigned) [Example 90] | 101 | 1.2 | –
20 | CC(C)OC(=O)N1[C@H](C)C[C@H](NS(=O)(=O)C(F)F)[C@@H]1CO[C@@H]1CC[C@]2(c3ncc(F)cn3)C[C@@H]2C1 (single isomer, unassigned) [Example 91] | 102 | 3.3 | –
21 | CC(C)OC(=O)N1[C@H](C)C[C@H](NS(=O)(=O)C(F)F)[C@@H]1COC1CCC2(c3ncc(F)cn3)CC2C1 (single isomer, unassigned) [Example 92] | – | 775 | 73.2
22 | CC(C)OC(=O)N1[C@H](C)C[C@H](NS(=O)(=O)C(F)F)[C@@H]1COC1CCC2(c3ncc(F)cn3)CC2C1 (single isomer, unassigned) [Example 93] | – | 458 | 40.6
23 | CC(C)OC(=O)N1[C@H](C)C[C@H](NS(=O)(=O)CF)[C@@H]1CO[C@H]1CC[C@@]2(c3ncc(Cl)cn3)C[C@H]2C1 (single isomer, unassigned) [Example 95] | 101 | 1.8 | –
24 | CC(C)OC(=O)N1[C@H](C)C[C@H](NS(=O)(=O)CF)[C@@H]1CO[C@@H]1CC[C@]2(c3ncc(Cl)cn3)C[C@@H]2C1 (single isomer, unassigned) [Example 96] | 103 | 6.5 | –
25 | CC(C)OC(=O)N1[C@H](C)C[C@H](NS(=O)(=O)CF)[C@@H]1CO[C@@H]1CC[C@]2(c3ncc(F)cn3)C[C@@H]2C1 (single isomer, unassigned) [Example 99] | 103 | 2.5 | –
26 | CC(C)OC(=O)N1[C@H](C)C[C@H](NS(=O)(=O)CF)[C@@H]1CO[C@H]1CC[C@@]2(c3ncc(F)cn3)C[C@H]2C1 (single isomer, unassigned) [Example 100] | 100 | 1 | –
27 | CC(C)OC(=O)N1[C@H](C)C[C@H](NS(=O)(=O)CF)[C@@H]1CO[C@H]1CC[C@@]2(c3ncc(Br)cn3)C[C@H]2C1 (single isomer, unassigned) [Example 103] | 101 | 4.3 | –
28 | CC(C)OC(=O)N1[C@H](C)C[C@H](NS(=O)(=O)CF)[C@@H]1CO[C@@H]1CC[C@]2(c3ncc(Br)cn3)C[C@@H]2C1 (single isomer, unassigned) [Example 104] | 102 | 34.5 | –
29 | CC(C)OC(=O)N1[C@H](C)C[C@H](NS(=O)(=O)CF)[C@@H]1COC1CCC2(c3ncc(Br)cn3)CC2C1 (single isomer, unassigned) [Example 105] | 91.7 | 233 | –
